# Assay results: PubChem BioAssay (NCI)
#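 Where inhibition never reached the appropriate level, the endpoint shown equals the highest concentration tested. Otherwise, values were interpolated linearly from a five-concentration, 48-hour dose response in 96-well plates. Abbreviation: GI50, concentration required for 50% inhibition of growth. Definition used: TGI = concentration required for complete inhibition of growth.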
# Key:
# Experiment in all cases: NCI tumour cell line growth inhibition, 48 h
# [1] = tested on: SNB-19 CNS
# [2] = tested on: SW-620 colon
# [3] = tested on: RPMI-8226 leukemia
# [4] = tested on: HOP-92 NSCLC
# [5] = tested on: COLO 205 colon
# [6] = tested on: CAKI-1 renal
# [7] = tested on: IGROV1 ovarian
# [8] = tested on: K-562 leukemia
# [9] = tested on: OVCAR-5 ovarian
# [10] = tested on: SK-MEL-28 melanoma
# [11] = tested on: NCI/ADR-RES ovarian
# [12] = tested on: SK-MEL-5 melanoma
# [13] = tested on: MALME-3M melanoma
# [14] = tested on: SF-539 CNS
# [15] = tested on: HS 578T breast
# [16] = tested on: TK-10 renal
# [17] = tested on: MDA-MB-231 breast
# [18] = tested on: HCT-15 colon
# [19] = tested on: SF-268 CNS
# [20] = tested on: A549 NSCLC
# [21] = tested on: UACC-62 melanoma
# [22] = tested on: M14 melanoma
# [23] = tested on: NCI-H460 lung
# [24] = tested on: KM12 colon
# [25] = tested on: NCI-H226 lung
# [26] = tested on: SF-295 CNS
# [27] = tested on: NCI-H522 lung
# [28] = tested on: MOLT-4 leukemia
# [29] = tested on: U251 CNS
# [30] = tested on: A498 renal
# [31] = tested on: 786-0 renal
# [32] = tested on: HCC-2998 colon
# [33] = tested on: BT-549 breast
# [34] = tested on: OVCAR-4 ovarian
# [35] = tested on: RXF 393 renal
# [36] = tested on: EKVX NSCLC
# [37] = tested on: OVCAR-8 ovarian
# [38] = tested on: UO-31 renal
# [39] = tested on: CCRF-CEM leukemia
# [40] = tested on: PC-3 prostate
# [41] = tested on: ACHN renal
# [42] = tested on: LOX IMVI melanoma
# [43] = tested on: MCF7 breast
# [44] = tested on: HL-60(TB) leukemia
# [45] = tested on: SR leukemia
# [46] = tested on: DU-145 prostate
# [47] = tested on: SN12C renal
# [48] = tested on: SK-MEL-2 melanoma
# [49] = tested on: HOP-62 NSCLC
# [50] = tested on: HCT-116 colon
# [51] = tested on: MDA-MB-435
# [52] = tested on: SK-OV-3 ovarian
# [53] = tested on: OVCAR-3 ovarian
# [54] = tested on: UACC-257 melanoma
# [55] = tested on: HT29 colon
# [56] = tested on: SNB-75 CNS
# [57] = tested on: T-47D breast
compound,measurement,setting,value
CN(C)S(=O)(=O)c1oc(-c2ccccc2)nc1C#N,GI50,[1],50 µM
same,TGI,[1],> 100 µM
same,GI50,[2],9.58 µM
same,TGI,[2],26.2 µM
same,GI50,[3],18.9 µM
same,TGI,[3],43.8 µM
same,GI50,[4],5.76 µM
same,TGI,[4],20.1 µM
same,GI50,[5],11.5 µM
same,TGI,[5],24.7 µM
same,GI50,[6],10.4 µM
same,TGI,[6],22.1 µM
same,GI50,[7],29 µM
same,TGI,[7],> 100 µM
same,GI50,[8],3.58 µM
same,TGI,[8],37.8 µM
same,GI50,[9],18.1 µM
same,TGI,[9],36.7 µM
same,GI50,[10],16.3 µM
same,TGI,[10],31.1 µM
same,GI50,[11],29.9 µM
same,TGI,[11],> 100 µM
same,GI50,[12],18.1 µM
same,TGI,[12],34.1 µM
same,GI50,[13],13.4 µM
same,TGI,[13],30.1 µM
same,GI50,[14],17.6 µM
same,TGI,[14],32.4 µM
same,GI50,[15],23.4 µM
same,TGI,[15],98.4 µM
same,GI50,[16],17.4 µM
same,TGI,[16],31.6 µM
same,GI50,[17],23.5 µM
same,TGI,[17],59.2 µM
same,GI50,[18],11.6 µM
same,TGI,[18],29.5 µM
same,GI50,[19],19.6 µM
same,TGI,[19],49.8 µM
same,GI50,[20],73.9 µM
same,TGI,[20],> 100 µM
same,GI50,[21],18.4 µM
same,TGI,[21],42.3 µM
same,GI50,[22],12.1 µM
same,TGI,[22],26.7 µM
same,GI50,[23],22.3 µM
same,TGI,[23],58.9 µM
same,GI50,[24],28.5 µM
same,TGI,[24],97.9 µM
same,GI50,[25],10 µM
same,TGI,[25],27.9 µM
same,GI50,[26],> 100 µM
same,TGI,[26],> 100 µM
same,GI50,[27],2810 nM
same,TGI,[27],11 µM
same,GI50,[28],2820 nM
same,TGI,[28],11.5 µM
same,GI50,[29],17.1 µM
same,TGI,[29],32.6 µM
same,GI50,[30],> 100 µM
same,TGI,[30],> 100 µM
same,GI50,[31],15.3 µM
same,TGI,[31],29.3 µM
same,GI50,[32],16.9 µM
same,TGI,[32],31.6 µM
same,GI50,[33],12 µM
same,TGI,[33],25.1 µM
same,GI50,[34],14.8 µM
same,TGI,[34],32 µM
same,GI50,[35],14.4 µM
same,TGI,[35],28.4 µM
same,GI50,[36],21.5 µM
same,TGI,[36],52.4 µM
same,GI50,[37],19 µM
same,TGI,[37],39.6 µM
same,GI50,[38],14.7 µM
same,TGI,[38],28.2 µM
same,GI50,[39],1900 nM
same,TGI,[39],9.32 µM
same,GI50,[40],15.3 µM
same,TGI,[40],32.2 µM
same,GI50,[41],14.9 µM
same,TGI,[41],28.6 µM
same,GI50,[42],1260 nM
same,TGI,[42],11.6 µM
same,GI50,[43],12 µM
same,TGI,[43],31.6 µM
same,GI50,[44],6.58 µM
same,TGI,[44],29.4 µM
same,GI50,[45],2560 nM
same,TGI,[45],13.4 µM
same,GI50,[46],15.6 µM
same,TGI,[46],29.4 µM
same,GI50,[47],17.2 µM
same,TGI,[47],49.1 µM
same,GI50,[48],13.8 µM
same,TGI,[48],28.6 µM
same,GI50,[49],> 100 µM
same,TGI,[49],> 100 µM
same,GI50,[50],12.6 µM
same,TGI,[50],25.6 µM
same,GI50,[51],18.3 µM
same,TGI,[51],44.9 µM
same,GI50,[52],> 100 µM
same,TGI,[52],> 100 µM
same,GI50,[53],12.9 µM
same,TGI,[53],27.8 µM
same,GI50,[54],15 µM
same,TGI,[54],29.8 µM
same,GI50,[55],16.6 µM
same,TGI,[55],36.1 µM
same,GI50,[56],16.1 µM
same,TGI,[56],30.7 µM
same,GI50,[57],16.1 µM
same,TGI,[57],38.5 µM
